US8952024B2, “Herbicidal pyrimidone derivatives” (E I du Pont de Nemours and Company, priority 2009, dated 2015)

Legend:
Assay in all cases: Test D pre-/postemergence plant response
Assay type in all cases: in vivo
[1] = tested on: Italian ryegrass (Lolium multiflorum)
Description: (§1) Seeds of plant species selected from bermudagrass (Cynodon dactylon), Surinam grass (Brachiaria decumbens), large crabgrass (Digitaria sanguinalis), green foxtail (Setaria viridis), goosegrass (Eleusine indica), johnsongrass (Sorghum halepense), kochia (Kochia scoparia), morningglory (pitted morningglory, Ipomoea lacunosa), nutsedge (purple nutsedge, Cyperus rotundus), ragweed (common ragweed, Ambrosia elatior), black mustard (Brassica nigra), guineagrass (Panicum maximum), dallisgrass (Paspalum dilatatum), barnyardgrass (Echinochloa crus-galli), sandbur (southern sandbur, Cenchrus echinatus), sowthistle (common sowthistle, Sonchus oleraceous), prickly sida (Sida spinosa), Italian ryegrass (Lolium multiflorum), purslane (common purslane, Portulaca oleracea), signalgrass (broadleaf signalgrass, Brachiaria platyphylla), groundsel (common groundsel, Senecio vulgaris), chickweed (common chickweed, Stellaria media), dayflower (Virginia (VA) dayflower, Commelina virginica), bluegrass (annual bluegrass, Poa annua), naked crabgrass (Digitaria nuda), itchgrass (Rottboellia cochinchinensis), quackgrass (Elytrigia repens), field bindweed (Convolvulus arvensis), spanishneedles (Bidens bipinnata), mallow (common mallow, Malva sylvestris) and Russian thistle (Salsola kali), were planted into a blend of loam soil and sand and treated preemergence with test chemicals formulated in a non-phytotoxic solvent mixture which included a surfactant. At the same time, plants from these weed species were treated with postemergence applications of the test chemicals formulated in the same manner. Plants ranged in height from 2 to 18 cm (1- to 4-leaf stage) for postemergence treatments.
(§2) Treated plants and controls were maintained in a greenhouse for 14 to 21 days, after which time all species were visually evaluated and compared to controls. Plant response ratings, summarized in Table D, are based on a scale of 0 to 100 where 0 is no effect and 100 is complete control. A dash (-) response means no test result.

[2] = tested on: chickweed (common chickweed, Stellaria media)
Description: as §1, §2

[3] = tested on: field bindweed (Convolvulus arvensis)
Description: as §1, §2

[4] = tested on: guineagrass (Panicum maximum)
Description: as §1, §2

[5] = tested on: nutsedge (purple nutsedge, Cyperus rotundus)
Description: as §1, §2

[6] = tested on: bermudagrass (Cynodon dactylon)
Description: as §1, §2

[7] = tested on: naked crabgrass (Digitaria nuda)
Description: as §1, §2

[8] = tested on: quackgrass (Elytrigia repens)
Description: as §1, §2

[9] = tested on: sowthistle (common sowthistle, Sonchus oleraceous)
Description: as §1, §2

[10] = tested on: black mustard (Brassica nigra)
Description: as §1, §2

[11] = tested on: large crabgrass (Digitaria sanguinalis)
Description: as §1, §2

[12] = tested on: purslane (common purslane, Portulaca oleracea)
Description: as §1, §2

[13] = tested on: groundsel (common groundsel, Senecio vulgaris); settings: Postemergence
Description: as §1, §2

[14] = tested on: signalgrass (broadleaf signalgrass, Brachiaria platyphylla)
Description: as §1, §2

[15] = tested on: morningglory (pitted morningglory, Ipomoea lacunosa)
Description: as §1, §2

[16] = tested on: Surinam grass (Brachiaria decumbens)
Description: as §1, §2

[17] = Postemergence, 16 g ai/ha, scale 0 to 100
[18] = Postemergence, 31 g ai/ha, scale 0 to 100
[19] = Postemergence, 125 g ai/ha, scale 0 to 100 (0 no effect, 100 complete control)
[20] = Postemergence, 62 g ai/ha, scale 0 to 100 (0 no effect, 100 complete control)
[21] = Preemergence, 16 g ai/ha, scale 0 to 100, 0 no effect, 100 complete control
[22] = Preemergence, 31 g ai/ha, scale 0 to 100 (0 no effect, 100 complete control)
[23] = Preemergence, 125 g ai/ha, scale 0 to 100
[24] = Preemergence, 62 g ai/ha, scale 0 to 100
[25] = Postemergence, 31 g ai/ha, scale 0 to 100 (0 no effect, 100 complete control)

O=C1CCCC(O)=C1C(=O)c1cnc(-c2cccs2)n(-c2ccccc2)c1=O [Compound 66]
Plant response rating, Ryegrass, Italian [1, 17]: 0 | Plant response rating, Ryegrass, Italian [1, 18]: 0 | Plant response rating, Ryegrass, Italian [1, 19]: 15 | Plant response rating, Ryegrass, Italian [1, 20]: 0 | Plant response rating, Ryegrass, Italian [1, 21]: 0 | Plant response rating, Ryegrass, Italian [1, 22]: 0 | Plant response rating, Ryegrass, Italian [1, 23]: 0 | Plant response rating, Chickweed [2, 19]: 95 | Plant response rating, Chickweed [2, 20]: 35 | Plant response rating, Chickweed [2, 21]: 0 | Plant response rating, Chickweed [2, 22]: 20 | Plant response rating, Chickweed [2, 24]: 90 | Plant response rating, Chickweed [2, 23]: 98 | Plant response rating, Field Bindweed [3, 17]: 0 | Plant response rating, Field Bindweed [3, 18]: 0 | Plant response rating, Field Bindweed [3, 19]: 0 | Plant response rating, Field Bindweed [3, 20]: 0 | Plant response rating, Field Bindweed [3, 21]: 0 | Plant response rating, Field Bindweed [3, 22]: 0 | Plant response rating, Field Bindweed [3, 24]: 0 | Plant response rating, Field Bindweed [3, 23]: 20 | Plant response rating, Guineagrass [4, 17]: 5 | Plant response rating, Guineagrass [4, 18]: 5 | Plant response rating, Guineagrass [4, 19]: 30 | Plant response rating, Guineagrass [4, 20]: 10 | Plant response rating, Guineagrass [4, 21]: 0 | Plant response rating, Guineagrass [4, 22]: 0 | Plant response rating, Guineagrass [4, 24]: 0 | Plant response rating, Guineagrass [4, 23]: 65 | Plant response rating, Nutsedge, Purple [5, 17]: 0 | Plant response rating, Nutsedge, Purple [5, 18]: 5 | Plant response rating, Nutsedge, Purple [5, 19]: 30 | Plant response rating, Nutsedge, Purple [5, 20]: 20 | Plant response rating, Nutsedge, Purple [5, 21]: 0 | Plant response rating, Nutsedge, Purple [5, 22]: 0 | Plant response rating, Nutsedge, Purple [5, 24]: 35 | Plant response rating, Nutsedge, Purple [5, 23]: 70 | Plant response rating, Bermudagrass [6, 17]: 5 | Plant response rating, Bermudagrass [6, 25]: 50 | Plant response rating, Bermudagrass [6, 19]: 65 | Plant response rating, Bermudagrass [6, 20]: 65 | Plant response rating, Bermudagrass [6, 21]: 0 | Plant response rating, Bermudagrass [6, 22]: 0 | Plant response rating, Bermudagrass [6, 24]: 5 | Plant response rating, Bermudagrass [6, 23]: 5 | Plant response rating, Crabgrass, Naked [7, 18]: 50 | Plant response rating, Crabgrass, Naked [7, 19]: 70 | Plant response rating, Crabgrass, Naked [7, 20]: 65 | Plant response rating, Crabgrass, Naked [7, 21]: 0 | Plant response rating, Crabgrass, Naked [7, 22]: 0 | Plant response rating, Crabgrass, Naked [7, 24]: 10 | Plant response rating, Crabgrass, Naked [7, 23]: 25 | Plant response rating, Quackgrass [8, 17]: 0 | Plant response rating, Quackgrass [8, 18]: 5 | Plant response rating, Quackgrass [8, 19]: 5 | Plant response rating, Quackgrass [8, 20]: 5 | Plant response rating, Quackgrass [8, 21]: 0 | Plant response rating, Quackgrass [8, 22]: 0 | Plant response rating, Quackgrass [8, 23]: 0 | Plant response rating, Sowthistle [9, 17]: 35 | Plant response rating, Sowthistle [9, 18]: 65 | Plant response rating, Sowthistle [9, 19]: 90 | Plant response rating, Sowthistle [9, 20]: 70 | Plant response rating, Sowthistle [9, 21]: 0 | Plant response rating, Sowthistle [9, 22]: 0 | Plant response rating, Sowthistle [9, 23]: 0 | Plant response rating, Black Mustard [10, 17]: 0 | Plant response rating, Black Mustard [10, 25]: 20 | Plant response rating, Black Mustard [10, 19]: 98 | Plant response rating, Black Mustard [10, 20]: 50 | Plant response rating, Black Mustard [10, 21]: 0 | Plant response rating, Black Mustard [10, 22]: 5 | Plant response rating, Black Mustard [10, 24]: 35 | Plant response rating, Black Mustard [10, 23]: 80 | Plant response rating, Crabgrass, Large [11, 17]: 20 | Plant response rating, Crabgrass, Large [11, 18]: 25 | Plant response rating, Crabgrass, Large [11, 19]: 35 | Plant response rating, Crabgrass, Large [11, 20]: 25 | Plant response rating, Crabgrass, Large [11, 21]: 15 | Plant response rating, Crabgrass, Large [11, 22]: 30 | Plant response rating, Crabgrass, Large [11, 24]: 50 | Plant response rating, Crabgrass, Large [11, 23]: 98 | Plant response rating, Purslane [12, 18]: 50 | Plant response rating, Purslane [12, 19]: 75 | Plant response rating, Purslane [12, 20]: 75 | Plant response rating, Purslane [12, 21]: 0 | Plant response rating, Purslane [12, 22]: 0 | Plant response rating, Purslane [12, 24]: 60 | Plant response rating, Purslane [12, 23]: 100 | Plant response rating, Groundsel ([13]; 31 g ai/ha, scale 0 to 100): 60 | Plant response rating, Groundsel ([13]; 125 g ai/ha, scale 0 to 100 (0 no effect, 100 complete control)): 80 | Plant response rating, Groundsel ([13]; 62 g ai/ha, scale 0 to 100 (0 no effect, 100 complete control)): 80 | Plant response rating, Signalgrass [14, 17]: 0 | Plant response rating, Signalgrass [14, 18]: 10 | Plant response rating, Signalgrass [14, 19]: 30 | Plant response rating, Signalgrass [14, 20]: 30 | Plant response rating, Signalgrass [14, 21]: 0 | Plant response rating, Signalgrass [14, 22]: 5 | Plant response rating, Signalgrass [14, 23]: 5 | Plant response rating, Morningglory [15, 17]: 65 | Plant response rating, Morningglory [15, 18]: 70 | Plant response rating, Morningglory [15, 19]: 90 | Plant response rating, Morningglory [15, 20]: 90 | Plant response rating, Morningglory [15, 21]: 0 | Plant response rating, Morningglory [15, 22]: 0 | Plant response rating, Morningglory [15, 24]: 90 | Plant response rating, Morningglory [15, 23]: 95 | Plant response rating, Surinam Grass [16, 18]: 60 | Plant response rating, Surinam Grass [16, 19]: 90 | Plant response rating, Surinam Grass [16, 20]: 90 | Plant response rating, Surinam Grass [16, 21]: 0 | Plant response rating, Surinam Grass [16, 22]: 80 | Plant response rating, Surinam Grass [16, 23]: 98
